The source of these data is patent US20020076393A1, “Method for stimulation of defensin production” (MAGAININ PHARMACEUTICALS, INC., priority 1998, published 2002).

Test [1] has as its system defensin production in MDBK cells. The experiment in a line: Defensin induction in MDBK cells (RNA-PCR / QPCR of β-defensin RNA). In kind it is cell-based, bovine. As to conditions: for effect on defensin production: at concentrations as high as fifty micrograms per milliliter. The protocol:
Cell Culture: MDBK (Madin-Darby Bovine Kidney) cells were obtained from the ATCC (Rockville, Md.) and were maintained in growth medium consisting of Eagle's modified essential media with Earle's balanced salt solution, 10% horse serum, 0.10 mM non-essential amino acids and no antibiotics. For stimulation experiments, cells were plated into six well tissue culture plates and maintained for three days in growth medium until cells were almost confluent. The medium was then changed to serum-free epithelial cell growth medium (Clonetics, San Diego, Calif.) and the test material was added to the dish. Twenty-four hours later, the medium was withdrawn and cells were rinsed with phosphate-buffered saline. Total RNA was then isolated using Trizol reagent (Gibco/BRL, Grand Island, N.Y.) according to protocols supplied by the manufacturer. RNA was quantified by measuring the OD260 of each sample.
RNA-Polymerase Chain Reaction: Total RNA was treated with DNase prior to reverse transcription and PCR. The DNase was heat inactivated at 65° C. in the presence of EDTA for ten minutes. Reverse transcription and PCR were performed essentially as described for the GeneAmp RNA PCR kit (Perkin Elmer, Foster City, Calif.). Briefly, approximately 250 nanograms of total RNA was primed with polydT and reverse transcribed with Murine Leukemia Virus reverse transcriptase in a total volume of 16 μL at room temperature for ten minutes and then at 42° C. for an additional fifteen minutes. The reverse transcriptase was heat inactivated at 99° C. for five minutes and the reaction was chilled to 4 degrees C. This reverse transcription reaction was then split in half: one portion was used for amplification of the target defensin RNA, and the other was treated in parallel to determine the β-tubulin RNA level as a control. Additional reagents necessary for the PCR reaction, including appropriate synthetic DNA primers;
were added after splitting the reverse transcription reactions to bring the reaction volumes to 40 μL. The reactions were then subjected to thermal cycling as follows: 95° C. for one minute, 52° C. for one minute, 72° C. for one minute for 30 cycles followed by a single 72° C. incubation for fifteen minutes to allow for extension. The expected 200 base pair β-defensin PCR product was measured by gel electrophoresis or QPCR (Quantitative PCR).
Product Capture for QPCR System: 10 μL of the final PCR mixture was combined with 15 μL of strepavidin bead slurry (Perkin-Elmer, Foster City, Calif.), 21 μL H2O and 4 μL of 10× PCR buffer to yield a 50 μL binding reaction. The binding reactions were incubated at room temperature for fifteen minutes with occasional agitation. One ml of QPCR assay buffer was then added to the reaction. The quantity of PCR product was subsequently measured with the Perkin-Elmer QPCR instrument (Perkin-Elmer, Foster City, Calif.). The amount of defensin product was normalized to endogenous expression in MDBK cells in the absence of any experimental agent.

Test [2] deals with defensin production in epithelial cells. The experiment in a line: Defensin inducing effect of isoleucine analogs in epithelial cells (FIGS. 6-9). The class given is cell-based. As to conditions: for defensin induction: epithelial cells, FIGS. 6, 7 and 8.
Test [3] concerns defensin production in HT-29 cells. The experiment in a line: Defensin induction in the human colon epithelial cell line HT-29. The class given is cell-based. As to conditions: FIG. 5.

SMILES strings stand for the structures.

Turning to `CC(C)[C@H](N)C(=O)O` [L-valine], the “effect on defensin production” value in test [1] is given as “no effect”. Moreover, the “stimulation of defensin expression, concentrations compared with isoleucine” value in test [2] (FIG. 9) is on record as “stimulates defensin expression at concentrations that are substantially higher than those needed for isoleucine”.

In the case of `CC[C@H](C)[C@H](N)C(=O)O` [L-isoleucine], the “dose-response effect on defensin production” value in test [1] (FIG. 2) was “dose-dependent effect”. Besides, the “concentration increasing defensin production, fold less than that of D-isoleucine” value in test [1] (L-isoleucine versus D-isoleucine, FIGS. 2 and 3) is listed as “fifty to one-hundred”. Moreover, in test [3], the defensin induction entry is “defensin inducing property”.

Consider `CC[C@@H](C)[C@H](N)C(=O)O` [alloisoleucine], for which the “effectiveness as inducer of defensin production compared with isoleucine” value in test [1] (FIG. 4) is listed as “not as effective an inducer”.

With `COC(=O)[C@@H](N)Cc1ccc(O)cc1` [L-tyrosine methyl ester, reference compound], the “effect on defensin production” value in test [1] was “no effect”.

Take `CC[C@H](C)C(=O)C(=O)O` [alpha-keto-methylvalerate]: in test [2], the defensin induction entry is “inducers of defensin production”.

Take `CC[C@H](C)[C@H](N)C(=O)NO` [isoleucine hydroxamate]: the defensin induction entry in test [2] is recorded as “inducers of defensin production”.
